Results as given in US12673918B2, “Small molecule RPN13 inhibitors with antitumor properties” (The Johns Hopkins University, priority 2019, dated 2026).
Read-outs that look alike come from different tables or passages of the source.

What was measured:
DLD1 = experiment: MTT cytotoxicity assay, DLD1; conditions: Homo sapiens, DLD-1, read-out: cytotoxicity IC50 DLD1
Experimental: (§3) Cell lines and cytotoxicity assays: All cell lines were obtained from the American Type Culture Collection (ATCC) and cultured in the specified medium supplemented with 10% fetal bovine serum, 100 IU/mL penicillin, and 100 μg/mL streptomycin at 37° C. in a humidified 5% CO2/95% air incubator. […] To assess drug cytotoxicity, cells were seeded at 2,500 cells/well (10,000 cells/well for MM lines) in 100 μL medium in 96-well plate and after 24 treated with compounds for 72 h, incubated according to the manufacturer's protocol with the Thiazolyl Blue Tetrazolium Bromide (Sigma, M2128) and A570 measured using a Benchmark Plus microplate spectrophotometer (BIO-RAD). IC50 data was analyzed by Graphpad Prism software. In the chirality studies the cells were treated with compounds for 48 h, and the cells were incubated and measured via the preceeding protocols.

[1] = MTT cytotoxicity assay, RPE1; conditions: human, RPE1 cells
Experimental: as §3

VU93 [2] = experiment: MTT cytotoxicity assay, VU93; conditions: read-out: cytotoxicity IC50 VU93, Tables 3A/4B/4C
BR5-Luc = experiment: MTT cytotoxicity assay, BR5-Luc; conditions: read-out: cytotoxicity IC50 BR5-Luc, Tables 3A/4B/4C, BRCA2 − VE
HCC1395 = experiment: MTT cytotoxicity assay, HCC1395; conditions: Homo sapiens, HCC1395, read-out: cytotoxicity IC50 HCC1395
BR5-FvB1 = experiment: MTT cytotoxicity assay, BR5-FvB1; conditions: Mus musculus, read-out: cytotoxicity IC50 BR5-FvB1
Experimental: as §3

C2KmFvB1 = experiment: MTT cytotoxicity assay, C2KmFvB1; conditions: read-out: cytotoxicity IC50 C2KmFvB1, Tables 3A/4B/4C, BRCA2 + Ve
DLD-Seckle = experiment: MTT cytotoxicity assay, DLD-Seckle; conditions: read-out: cytotoxicity IC50 DLD-Seckle
Experimental: as §3

RPE1-ATMKO = experiment: MTT cytotoxicity assay, RPE1-ATMKO; conditions: read-out: cytotoxicity IC50 RPE1-ATMKO
Experimental: as §3

DLD-BRCA2-Ve = experiment: MTT cytotoxicity assay, DLD-BRCA2-Ve; conditions: read-out: cytotoxicity IC50 DLD-BRCA2-Ve
Experimental: as §3

HeLa cells = experiment: XTT cytotoxicity assay, HeLa; format: cell-based, human
From the text: (§1) The impact of substituents of the aromatic ring on the potency of molecules was also examined. The presence of either an electron withdrawing group (EWG) or an electron donating group (EDG) influences the reactivity of a Michael acceptor towards the target protein but can also impact specificity/selectivity.

SKOV3 cells = experiment: XTT cytotoxicity assay, SKOV3; format: cell-based, human
From the text: as §1

[3] = tested on: high molecular weight polyubiquitinated proteins; experiment: Western blot of polyubiquitinated proteins, ES2 cells; format: cell-based, human; conditions: 1 μM, 4 hr
Experimental: FIG. 1C illustrates ES2 cells treated with compounds (1 μM, 4 hr), lysed and the samples probed with ubiquitin or actin-specific antibody by Western blot analysis.
Antibodies, reagents, and Western Blot Analyses: Cell lysate (10-20 μg total protein) prepared in MPER (Pierce) from each sample was subjected to SDS-PAGE, transferred to PVDF membranes and analyzed by Western blot using antibodies specific Bax (#2772, Cell Signaling), ubiquitin (P4D1, sc-8017, Santa Cruz), PARP (#9542, BD Pharmingen), actin (#66009, Protein Tech Group), Tubulin(#66031, Protein Tech Group), ADRM1/Rpn13 (D9Z1U, #12019, Cell Signaling), Lys48-linkled ubiquitin (Apu 2, 05-1307, (Millipore), Annexin V (#559763, BD pharmingen), caspase-3 (51-68655X, BD Pharmingen) at the dilutions recommended by the manufacturers, and for secondary antibodies either peroxidase-linked anti-mouse IgG or anti-rabbit IgG (GE Healthcare UK Ltd) were utilized, HRP conjugated streptavidin (N100, Thermo Fisher) at the recommended dilution (1:5000). MitoTracker Red CMXRos reagent was purchased from ThermoFisher #M7512. The blots were developed using HyGLO chemiluminescent detection reagent (Denville).

RPN13 = RPN13 (Homo sapiens, UniProt Q16186); experiment: Competition with RA190B labeling of 42 kDa cellular target in cell lysate; format: binding; set-up: endogenous in cells; running text says HeLa) and OV2008 cell lysates; conditions: cell lysate pre-incubated with compounds (20 μM), then RA190B; HRP-streptavidin blot
Sequence of RPN13 (Q16186 whole entry): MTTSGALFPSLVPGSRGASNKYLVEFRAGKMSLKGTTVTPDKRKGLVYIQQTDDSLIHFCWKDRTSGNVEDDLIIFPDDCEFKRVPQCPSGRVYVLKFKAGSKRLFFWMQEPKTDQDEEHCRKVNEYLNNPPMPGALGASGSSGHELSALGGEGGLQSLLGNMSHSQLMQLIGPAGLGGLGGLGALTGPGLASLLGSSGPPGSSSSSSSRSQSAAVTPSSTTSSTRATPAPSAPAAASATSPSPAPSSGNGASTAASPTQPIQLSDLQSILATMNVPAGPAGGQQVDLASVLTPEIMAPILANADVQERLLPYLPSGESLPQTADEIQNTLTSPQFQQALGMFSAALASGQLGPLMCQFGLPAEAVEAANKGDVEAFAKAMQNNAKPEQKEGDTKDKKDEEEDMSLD
Experimental: (§2) FIG. 1B illustrates precleared ES2 cell lysate incubated with compounds (20 μM) or vehicle (DMSO, 1:100) for 45 min and then with RA190B (5 μM) for 45 min at 4° C. by Western blot analysis. Samples were subjected to SDS-PAGE, transfer to PVDF membrane, and after probing with HRP-streptavidin, binding was detected using chemiluminescence.
as §2, with “2B” for “1B”, “OV2008” for “ES2”, “(10” for “(5”, “binding of” for “after probing with”, “HRP-streptavidin,” for “HRP-streptavidin, binding was”
Biotinylated RA190 (RA190B, FIG. 1A) is utilized as a probe to detect covalent binding to its cellular target(s) in detergent lysates of cancer cell lines (10). […] Here, the ability of compounds (FIG. 1A) to compete with RA190B binding to its 42 kDa cellular target (FIG. 1B) were examined. Compounds, including bortezomib as a negative control, were incubated with HeLa cell lysate and then RA190B added.
Biotin labeling Assay: Clarified cell lysate in MPER buffer was pretreated with streptavidin magna beads for 45 min at 4° C. to deplete non-specific biotinylated proteins in the cell lysate. The beads were separated and 40 μL of the pre-cleared cell lysate was incubated with compounds (20 μM) for 45 min at 4° C., and then treated with RA183B, RA190B, or RA413SB (10 μM) for 45 min at 4° C. Next, the samples were mixed with Laemmli sample buffer (BioRad) and boiled for 5 min. […] (24 V). The membrane was blocked with 5% BSA in PBST for 1 hr at RT and washed for 20 minutes (3× with PBST). Then the membrane was probed with HRP-streptavidin (1:10,000 in PBST) for 1 hr at RT, washed for 30 min (3× with PBST), and developed using HyGLO chemiluminescent detection reagent (Denville) for biotin detection.

HeLa [4] = experiment: MTT cytotoxicity assay, HeLa; conditions: read-out: cytotoxicity IC50 HeLa, Tables 3A/4B/4C
SKOV3 = experiment: MTT cytotoxicity assay, SKOV3
Experimental: Cell lines and cytotoxicity assays: All cell lines were obtained from the American Type Culture Collection (ATCC) and cultured in the specified medium supplemented with 10% fetal bovine serum, 100 IU/mL penicillin, and 100 μg/mL streptomycin at 37° C. in a humidified 5% CO2/95% air incubator. […] To assess drug cytotoxicity, cells were seeded at 2,500 cells/well (10,000 cells/well for MM lines) in 100 μL medium in 96-well plate and after 24 treated with compounds for 72 h, incubated according to the manufacturer's protocol with the Thiazolyl Blue Tetrazolium Bromide (Sigma, M2128) and A570 measured using a Benchmark Plus microplate spectrophotometer (BIO-RAD). IC50 data was analyzed by Graphpad Prism software.

ES2 = experiment: MTT cytotoxicity assay, ES2; conditions: read-out: cytotoxicity IC50 ES2; Tables 3A/4B/4C; MTT assay
MCF7 = experiment: MTT cytotoxicity assay, MCF7; conditions: read-out: cytotoxicity IC50 MCF7, Tables 3A/4B/4C
OVCAR3 = experiment: MTT cytotoxicity assay, OVCAR3; conditions: read-out: cytotoxicity IC50 OVCAR3; Tables 3A/4B/4C; MTT assay
ID8-vegf = experiment: MTT cytotoxicity assay, ID8-vegf; conditions: read-out: cytotoxicity IC50 ID8-vegf, Tables 3A/4B/4C
HeLa [5] = conditions: human
SSC90 = conditions: human
VU93 [6] = tested on: VU93
FaDu = experiment: cells; conditions: Homo sapiens, read-out: cytotoxicity IC50 FaDu
TOV21G = experiment: MTT cytotoxicity assay, TOV21G; conditions: read-out: cytotoxicity IC50 TOV21G; Tables 3A/4B/4C; MTT assay
OV2008 = experiment: MTT cytotoxicity assay, OV2008; conditions: read-out: cytotoxicity IC50 OV2008
Experimental: as §3

[7] = Table 1, XTT assay, read-out: IC50 HeLa
[8] = Table 1, XTT assay, read-out: IC50 SKOV3
[9] = Homo sapiens, SK-OV-3, read-out: cytotoxicity IC50 SKOV3

O=C(c1cc(Cc2n[nH]c(=O)c3ccccc23)ccc1F)N1CCN(C(=O)C2CC2)CC1 [OLA, olaparib, reference compound]
IC50 (DLD1): 23000 nM
IC50 [1]: 23200 nM
IC50 (VU93 [2]): 30 nM
IC50 (BR5-Luc): 500 nM
IC50 (HCC1395): 750 nM
IC50 (BR5-FvB1): 30 nM
IC50 (C2KmFvB1): 7960 nM
IC50 (DLD-Seckle): 1.7 nM
IC50 (RPE1-ATMKO): 2.6 nM
IC50 (DLD-BRCA2-Ve): 2.5 nM

Cl.NC(Cc1ccccc1)C(=O)N1CC(=CC=Cc2ccccc2)C(=O)C(=CC=Cc2ccccc2)C1 (centres unmarked) [RA181C]
IC50 (HeLa cells; [7]): > 2500 nM
IC50 (SKOV3 cells; [8]): > 2500 nM
accumulation of high molecular weight polyubiquitinated proteins [3]: only minimal accumulation of polyubiquitinated proteins
competition with RA190B binding to 42 kDa cellular target (RPN13): failed to compete binding by RA190B

CC1NCC(=Cc2ccc([N+](=O)[O-])cc2)C(=O)C1=Cc1ccc([N+](=O)[O-])cc1 (racemic) [RA411]
IC50 (HeLa [4]): 16 nM
IC50 (SKOV3; read-out: cytotoxicity IC50 SKOV3, Tables 3A/4B/4C, MTT assay): 257 nM

CC1/C(=C\c2ccccc2F)C(=O)/C(=C/c2ccccc2F)CN1C(=O)[C@@H](N)Cc1ccccc1 (mixture of isomers) [RA467]
IC50 (ES2): 112 nM
IC50 (DLD1): 474 nM
IC50 (MCF7): 750 nM
IC50 (SKOV3; [9]): 126 nM
IC50 (OVCAR3): 120 nM
IC50 (HCC1395): 250 nM
IC50 (ID8-vegf): 167 nM
IC50 (DLD-BRCA2-Ve): 502 nM

Cl.NC(Cc1ccccc1)C(=O)N1C2CCC1C(=Cc1ccc(Cl)c(Cl)c1)C(=O)C2=Cc1ccc(Cl)c(Cl)c1 (centres unmarked) [RA338]
IC50 (HeLa cells; Table 2, read-out: IC50 HeLa (bridge compounds)): 66 nM
IC50 (SKOV3 cells; Table 2, read-out: IC50 SKOV3 (bridge compounds)): 81 nM
accumulation of high molecular weight polyubiquitinated proteins [3]: rapid accumulation of high molecular weight polyubiquitinated proteins
competition with RA190B binding to 42 kDa cellular target (RPN13): competed labeling by RA190B to a greater extent

COc1cccc2c1C(=O)c1c(O)c3c(c(O)c1C2=O)C[C@@](O)(C(=O)CO)C[C@@H]3O[C@H]1C[C@H](N)[C@H](O)[C@H](C)O1 [DOX, Doxorubicin]
IC50 (BR5-Luc): 237 nM
IC50 (BR5-FvB1): < 20 nM

Cl.NC(Cc1ccccc1)C(=O)N1CC(=Cc2ccccc2)C(=O)C(=Cc2ccccc2)C1 (centres unmarked) [RA181]
IC50 (HeLa cells; [7]): 63 nM
IC50 (SKOV3 cells; [8]): 89 nM
accumulation of high molecular weight polyubiquitinated proteins [3]: rapid accumulation of high molecular weight polyubiquitinated proteins
competition with RA190B binding to 42 kDa cellular target (RPN13): competed labeling by RA190B to a greater extent

CC[C@]1(O)C[C@H]2CN(CCc3c([nH]c4ccccc34)[C@@](C(=O)OC)(c3cc4c(cc3OC)N(C=O)[C@H]3[C@@](O)(C(=O)OC)[C@H](OC(C)=O)[C@]5(CC)C=CCN6CC[C@]43[C@@H]65)C2)C1 [Vin, Vincristine]
IC50 (C2KmFvB1): 13.4 nM

CC1/C(=C\c2ccc([N+](=O)[O-])cc2)C(=O)/C(=C/c2ccc([N+](=O)[O-])cc2)CN1C(=O)[C@@H](N)Cc1ccccc1 (mixture of isomers) [RA413]
IC50 (HeLa [5]): 96 nM
IC50 (SSC90): 312 nM
IC50 (VU93 [6]): 625 nM
IC50 (FaDu): 300 nM
IC50 (SKOV3; [9]): 86 nM
IC50 (TOV21G): 42 nM
IC50 (OV2008): 150 nM
IC50 (ID8-vegf): 192 nM

CC1(C)CN(C(=O)[C@@H](N)Cc2ccccc2)C/C(=C\c2ccc(Cl)c(Cl)c2)C1=O [RA190H]
IC50 (HeLa cells; Homo sapiens, HeLa, Table 1, XTT assay, read-out: IC50 HeLa): 562 nM
fold decreased potency compared to RA190 (HeLa cells; cytotoxicity, Table 1 cell lines (HeLa, SKOV3)): 6 fold
accumulation of high molecular weight polyubiquitinated proteins [3]: only weakly caused an accumulation of high molecular weight polyubiquitinated proteins
competition with RA190B binding to 42 kDa cellular target (RPN13): competed labeling by RA190B to a greater extent

CC1/C(=C\c2ccc(F)cc2)C(=O)/C(=C/c2ccc(F)cc2)CN1C(=O)[C@@H](N)Cc1ccccc1 (mixture of isomers) [RA462]
IC50 (ES2): 96 nM
IC50 (MCF7): 750 nM
IC50 (SKOV3; [9]): 112 nM
IC50 (OVCAR3): 105 nM
IC50 (HCC1395): 250 nM
IC50 (ID8-vegf): 123 nM
